Test results published in the kinase profiling compilation of Christmann-Franck et al. (2016).

Experiments:
Assay in all cases: radiometric filter-binding kinase assay, Kinase HotSpot
Conditions in all cases: compound 0.5 µM; ATP 10 µM
[1] = target: MAPK13 (human) (UniProt O15264)
[2] = target: FLT3 (human) (UniProt P36888)
[3] = target: PNCK (human) (UniProt Q6P2M8)
[4] = target: PHKG1 (human) (UniProt Q16816)
[5] = target: MYLK2 (human) (UniProt Q9H1R3)
[6] = target: PKN1 (human) (UniProt Q16512)
[7] = target: MAPK14 (human) (UniProt Q16539)
[8] = target: PAK6 (human) (UniProt Q9NQU5)
[9] = target: MARK3 (human) (UniProt P27448)
[10] = target: ULK1 (human) (UniProt O75385)
[11] = target: AURKB (human) (UniProt Q96GD4)
[12] = target: MAPK3 (human) (UniProt P27361)
[13] = target: CAMK2G (human) (UniProt Q13555)
[14] = target: ERBB4 (human) (UniProt Q15303)
[15] = target: FGFR3 (human) (UniProt P22607)
[16] = target: RPS6KA5 KD2 (human) (UniProt O75582)
[17] = target: PLK3 (human) (UniProt Q9H4B4)
[18] = target: SIK2 (human) (UniProt Q9H0K1)
[19] = target: PRKCB1 (human) (UniProt P05771)
[20] = target: MAPK10 (human) (UniProt P53779)
[21] = target: PRKCZ (human) (UniProt Q05513)
[22] = target: GSK3B (human) (UniProt P49841)
[23] = target: MARK1 (human) (UniProt Q9P0L2)
[24] = target: FRK (human) (UniProt P42685)
[25] = target: IRAK1 (human) (UniProt P51617)
[26] = target: GRK7 (human) (UniProt Q8WTQ7)
[27] = target: EPHB1 (human) (UniProt P54762)
[28] = target: INSRR (human) (UniProt P14616)
[29] = target: MARK2 (human) (UniProt Q7KZI7)
[30] = target: WEE1 (human) (UniProt P30291)
[31] = target: PHKG2 (human) (UniProt P15735)
[32] = target: JAK3 JH1 JH2 (human) (UniProt P52333)
[33] = target: CLK4 (human) (UniProt Q9HAZ1)
[34] = target: DAPK3 (human) (UniProt O43293)
[35] = target: MAP3K9 (human) (UniProt P80192)
[36] = target: PIM2 (human) (UniProt Q9P1W9)
[37] = target: GRK4 (human) (UniProt P32298)
[38] = target: AURKA (human) (UniProt O14965)
[39] = target: WNK3 (human) (UniProt Q9BYP7)
[40] = target: PRKCG (human) (UniProt P05129)
[41] = target: PTK2 (human) (UniProt Q05397)
[42] = target: FGFR2 (human) (UniProt P21802)

ULK1 (human), sequence (O75385 whole entry, looked up): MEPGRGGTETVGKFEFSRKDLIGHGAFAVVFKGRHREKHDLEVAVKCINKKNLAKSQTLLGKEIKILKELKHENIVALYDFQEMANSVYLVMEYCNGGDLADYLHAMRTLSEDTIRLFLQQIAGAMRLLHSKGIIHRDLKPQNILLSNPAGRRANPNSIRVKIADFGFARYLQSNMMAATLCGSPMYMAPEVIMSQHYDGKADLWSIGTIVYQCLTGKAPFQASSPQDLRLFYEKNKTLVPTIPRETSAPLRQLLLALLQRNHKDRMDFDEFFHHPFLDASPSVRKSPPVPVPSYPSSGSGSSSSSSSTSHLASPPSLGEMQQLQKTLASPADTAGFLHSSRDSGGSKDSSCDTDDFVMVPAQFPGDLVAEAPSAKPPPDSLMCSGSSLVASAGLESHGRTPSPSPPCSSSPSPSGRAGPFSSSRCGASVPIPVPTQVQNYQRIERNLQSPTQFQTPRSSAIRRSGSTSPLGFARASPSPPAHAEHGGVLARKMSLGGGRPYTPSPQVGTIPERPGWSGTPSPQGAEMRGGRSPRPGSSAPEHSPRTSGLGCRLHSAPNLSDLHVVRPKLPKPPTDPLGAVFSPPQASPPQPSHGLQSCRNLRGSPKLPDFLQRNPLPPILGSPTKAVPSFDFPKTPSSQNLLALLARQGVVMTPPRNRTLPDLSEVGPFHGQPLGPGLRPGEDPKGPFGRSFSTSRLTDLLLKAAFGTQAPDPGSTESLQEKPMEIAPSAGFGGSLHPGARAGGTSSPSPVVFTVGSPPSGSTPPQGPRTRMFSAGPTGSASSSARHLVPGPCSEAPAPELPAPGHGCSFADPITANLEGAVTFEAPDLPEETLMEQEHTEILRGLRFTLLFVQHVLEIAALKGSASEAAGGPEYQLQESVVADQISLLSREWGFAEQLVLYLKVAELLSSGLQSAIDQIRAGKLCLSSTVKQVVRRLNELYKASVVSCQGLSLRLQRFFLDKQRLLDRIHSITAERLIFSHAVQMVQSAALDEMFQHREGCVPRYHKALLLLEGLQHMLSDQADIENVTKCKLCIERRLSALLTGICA
PNCK (human), sequence (Q6P2M8 whole entry, looked up): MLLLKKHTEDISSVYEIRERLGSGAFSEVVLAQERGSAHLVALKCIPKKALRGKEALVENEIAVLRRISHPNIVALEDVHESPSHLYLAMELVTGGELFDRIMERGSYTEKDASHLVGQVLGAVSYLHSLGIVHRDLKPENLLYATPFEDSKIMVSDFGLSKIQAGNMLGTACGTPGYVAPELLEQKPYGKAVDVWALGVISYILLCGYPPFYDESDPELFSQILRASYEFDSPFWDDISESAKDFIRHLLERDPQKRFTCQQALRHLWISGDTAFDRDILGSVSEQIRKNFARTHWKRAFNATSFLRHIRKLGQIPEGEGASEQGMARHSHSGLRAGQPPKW
GSK3B (human), sequence (P49841 whole entry, looked up): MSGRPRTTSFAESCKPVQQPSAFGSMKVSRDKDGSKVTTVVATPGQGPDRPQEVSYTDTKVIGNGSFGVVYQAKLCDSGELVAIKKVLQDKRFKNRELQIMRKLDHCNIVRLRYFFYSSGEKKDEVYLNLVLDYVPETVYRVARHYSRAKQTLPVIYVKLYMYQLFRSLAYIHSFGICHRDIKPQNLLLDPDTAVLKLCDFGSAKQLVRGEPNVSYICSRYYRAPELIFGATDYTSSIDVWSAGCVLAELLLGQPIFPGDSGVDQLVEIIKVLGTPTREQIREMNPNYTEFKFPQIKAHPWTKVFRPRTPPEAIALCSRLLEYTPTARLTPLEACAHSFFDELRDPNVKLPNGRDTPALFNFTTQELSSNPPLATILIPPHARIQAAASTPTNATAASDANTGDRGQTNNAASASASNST
MARK1 (human), sequence (Q9P0L2 whole entry, looked up): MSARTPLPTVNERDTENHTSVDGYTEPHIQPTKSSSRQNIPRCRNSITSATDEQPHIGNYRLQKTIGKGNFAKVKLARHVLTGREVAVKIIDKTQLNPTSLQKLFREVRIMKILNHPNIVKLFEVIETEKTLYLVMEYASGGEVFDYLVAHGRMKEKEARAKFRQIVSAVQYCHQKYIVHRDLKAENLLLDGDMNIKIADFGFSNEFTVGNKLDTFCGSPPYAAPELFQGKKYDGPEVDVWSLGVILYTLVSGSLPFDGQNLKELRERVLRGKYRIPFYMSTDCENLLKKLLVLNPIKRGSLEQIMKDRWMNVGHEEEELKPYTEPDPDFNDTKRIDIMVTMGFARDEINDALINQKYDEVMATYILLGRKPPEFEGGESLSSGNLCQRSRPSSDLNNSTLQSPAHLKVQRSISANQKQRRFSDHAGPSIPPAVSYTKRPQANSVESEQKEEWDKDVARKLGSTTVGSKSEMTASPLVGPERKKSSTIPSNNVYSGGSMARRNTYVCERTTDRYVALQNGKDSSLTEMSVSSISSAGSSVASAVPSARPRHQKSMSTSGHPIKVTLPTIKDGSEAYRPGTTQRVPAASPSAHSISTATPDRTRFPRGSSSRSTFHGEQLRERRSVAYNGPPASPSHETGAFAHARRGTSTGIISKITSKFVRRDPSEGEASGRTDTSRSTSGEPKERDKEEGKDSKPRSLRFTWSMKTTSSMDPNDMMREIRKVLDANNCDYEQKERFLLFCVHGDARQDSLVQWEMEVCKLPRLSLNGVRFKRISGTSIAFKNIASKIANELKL
INSRR (human), sequence (P14616 whole entry, looked up): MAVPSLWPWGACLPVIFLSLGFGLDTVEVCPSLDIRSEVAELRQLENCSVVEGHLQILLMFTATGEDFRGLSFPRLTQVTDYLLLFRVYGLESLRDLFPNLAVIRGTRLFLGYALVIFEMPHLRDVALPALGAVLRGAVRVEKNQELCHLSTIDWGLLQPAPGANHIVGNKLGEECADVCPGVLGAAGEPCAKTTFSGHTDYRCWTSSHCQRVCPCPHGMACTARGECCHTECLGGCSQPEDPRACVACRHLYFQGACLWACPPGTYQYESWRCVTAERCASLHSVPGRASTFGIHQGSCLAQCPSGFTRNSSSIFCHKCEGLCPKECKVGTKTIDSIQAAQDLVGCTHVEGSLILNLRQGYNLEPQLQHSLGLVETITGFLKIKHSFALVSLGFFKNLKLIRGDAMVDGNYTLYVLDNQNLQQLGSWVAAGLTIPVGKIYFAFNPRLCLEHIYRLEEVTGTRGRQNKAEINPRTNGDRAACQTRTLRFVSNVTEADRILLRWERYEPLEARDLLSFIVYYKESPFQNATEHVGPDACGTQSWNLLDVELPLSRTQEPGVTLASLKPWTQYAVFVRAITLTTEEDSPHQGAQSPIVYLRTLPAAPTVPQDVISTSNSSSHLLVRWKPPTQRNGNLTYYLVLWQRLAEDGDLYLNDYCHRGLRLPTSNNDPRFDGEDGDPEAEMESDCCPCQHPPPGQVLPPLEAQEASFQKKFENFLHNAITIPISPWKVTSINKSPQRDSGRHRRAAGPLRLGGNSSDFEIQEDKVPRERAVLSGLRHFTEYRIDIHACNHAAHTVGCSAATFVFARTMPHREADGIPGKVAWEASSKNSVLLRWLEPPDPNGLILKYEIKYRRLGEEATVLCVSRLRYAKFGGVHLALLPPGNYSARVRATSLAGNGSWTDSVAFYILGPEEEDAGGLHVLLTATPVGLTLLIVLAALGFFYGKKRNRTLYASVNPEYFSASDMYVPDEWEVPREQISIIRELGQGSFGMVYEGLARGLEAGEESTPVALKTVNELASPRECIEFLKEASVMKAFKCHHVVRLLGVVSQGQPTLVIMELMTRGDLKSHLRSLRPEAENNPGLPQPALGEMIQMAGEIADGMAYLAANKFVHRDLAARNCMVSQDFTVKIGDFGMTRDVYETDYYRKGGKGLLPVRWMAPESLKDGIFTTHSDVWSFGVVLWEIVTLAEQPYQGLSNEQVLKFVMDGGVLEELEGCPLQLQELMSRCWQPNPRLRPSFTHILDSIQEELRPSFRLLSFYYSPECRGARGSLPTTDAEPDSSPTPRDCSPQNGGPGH
IRAK1 (human), sequence (P51617 whole entry, looked up): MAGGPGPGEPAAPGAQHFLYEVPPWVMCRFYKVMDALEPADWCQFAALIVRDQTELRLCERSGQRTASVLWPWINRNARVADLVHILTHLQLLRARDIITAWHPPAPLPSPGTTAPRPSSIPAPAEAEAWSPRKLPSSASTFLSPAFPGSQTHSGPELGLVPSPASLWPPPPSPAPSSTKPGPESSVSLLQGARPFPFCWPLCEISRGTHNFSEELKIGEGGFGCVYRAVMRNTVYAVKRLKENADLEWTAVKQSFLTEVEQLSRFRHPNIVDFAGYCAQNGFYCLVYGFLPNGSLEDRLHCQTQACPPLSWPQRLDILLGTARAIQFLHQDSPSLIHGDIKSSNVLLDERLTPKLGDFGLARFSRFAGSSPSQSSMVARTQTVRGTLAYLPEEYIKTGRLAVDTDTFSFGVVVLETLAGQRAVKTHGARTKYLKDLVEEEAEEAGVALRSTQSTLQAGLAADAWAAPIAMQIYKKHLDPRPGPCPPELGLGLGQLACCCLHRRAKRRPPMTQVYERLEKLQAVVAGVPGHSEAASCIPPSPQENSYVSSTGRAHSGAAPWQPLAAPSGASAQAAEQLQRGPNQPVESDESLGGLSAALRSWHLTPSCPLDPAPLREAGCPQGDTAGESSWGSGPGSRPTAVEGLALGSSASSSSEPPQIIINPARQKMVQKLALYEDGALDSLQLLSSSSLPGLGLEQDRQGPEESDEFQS
PHKG2 (human), sequence (P15735 whole entry, looked up): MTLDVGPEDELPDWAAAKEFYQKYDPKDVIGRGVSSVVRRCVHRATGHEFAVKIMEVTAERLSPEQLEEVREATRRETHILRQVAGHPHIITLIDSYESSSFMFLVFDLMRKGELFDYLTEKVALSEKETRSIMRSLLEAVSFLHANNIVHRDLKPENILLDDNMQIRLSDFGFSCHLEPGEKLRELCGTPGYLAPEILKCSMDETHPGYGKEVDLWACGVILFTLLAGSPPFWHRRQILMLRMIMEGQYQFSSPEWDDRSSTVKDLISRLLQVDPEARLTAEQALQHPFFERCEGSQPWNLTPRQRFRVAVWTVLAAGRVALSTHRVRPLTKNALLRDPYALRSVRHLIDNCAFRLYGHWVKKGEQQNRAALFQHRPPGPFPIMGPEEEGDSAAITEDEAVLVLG

## CCn1cnc2c(Nc3cccc(Cl)c3)nc(N[C@@H]3CCCC[C@@H]3N)nc21
[1]
  residual activity: 102%
[2]
  residual activity: 12.7%
[3]
  residual activity: 98.5%
[4]
  residual activity: 62.8%
[5]
  residual activity: 95.2%
[6]
  residual activity: 69.9%
[7]
  residual activity: 100%
[8]
  residual activity: 96.7%
[9]
  residual activity: 98.7%
[10]
  residual activity: 74.5%
[11]
  residual activity: 98.8%
[12]
  residual activity: 108%
[13]
  residual activity: 104%
[14]
  residual activity: 103%
[15]
  residual activity: 90.4%
[16]
  residual activity: 87.8%
[17]
  residual activity: 90.1%
[18]
  residual activity: 89.1%
[19]
  residual activity: 106%
[20]
  residual activity: 98.8%
[21]
  residual activity: 106%
[22]
  residual activity: 104%
[23]
  residual activity: 93.1%
[24]
  residual activity: 87.7%
[25]
  residual activity: 81.7%
[26]
  residual activity: 97.9%
[27]
  residual activity: 56.6%
[28]
  residual activity: 90.7%
[29]
  residual activity: 90.1%
[30]
  residual activity: 110%
[31]
  residual activity: 85.6%
[32]
  residual activity: 99.6%
[33]
  residual activity: 49.9%
[34]
  residual activity: 105%
[35]
  residual activity: 54.9%
[36]
  residual activity: 111%
[37]
  residual activity: 96.2%
[38]
  residual activity: 105%
[39]
  residual activity: 92%
[40]
  residual activity: 95%
[41]
  residual activity: 83.1%

## Cn1sc(=O)n(Cc2ccccc2)c1=O
[1]
  residual activity: 97.5%
[2]
  residual activity: 99.1%
[3]
  residual activity: 98.7%
[4]
  residual activity: 102%
[5]
  residual activity: 101%
[6]
  residual activity: 98.5%
[7]
  residual activity: 101%
[8]
  residual activity: 93.4%
[9]
  residual activity: 97.1%
[10]
  residual activity: 98.9%
[11]
  residual activity: 102%
[12]
  residual activity: 90.4%
[13]
  residual activity: 90.1%
[14]
  residual activity: 104%
[15]
  residual activity: 100%
[16]
  residual activity: 108%
[17]
  residual activity: 99.1%
[18]
  residual activity: 98.6%
[19]
  residual activity: 110%
[20]
  residual activity: 91.1%
[21]
  residual activity: 101%
[22]
  residual activity: 114%
[23]
  residual activity: 107%
[24]
  residual activity: 112%
[25]
  residual activity: 116%
[26]
  residual activity: 112%
[27]
  residual activity: 100%
[28]
  residual activity: 99.3%
[29]
  residual activity: 118%
[30]
  residual activity: 92.3%
[31]
  residual activity: 90.6%
[32]
  residual activity: 106%
[33]
  residual activity: 99.1%
[34]
  residual activity: 103%
[35]
  residual activity: 99.4%
[36]
  residual activity: 107%
[37]
  residual activity: 101%
[38]
  residual activity: 104%
[39]
  residual activity: 101%
[40]
  residual activity: 86.6%
[41]
  residual activity: 99.5%

## O=C1NC(=O)C(c2cn(CCCO)c3ncccc23)=C1c1cnccn1
[1]
  residual activity: 96.5%
[42]
  residual activity: 103%
[2]
  residual activity: 87.8%
[3]
  residual activity: 94.9%
[4]
  residual activity: 87.2%
[5]
  residual activity: 81.1%
[6]
  residual activity: 97.8%
[7]
  residual activity: 107%
[8]
  residual activity: 78.2%
[9]
  residual activity: 87.8%
[10]
  residual activity: 102%
[11]
  residual activity: 101%
[12]
  residual activity: 94.5%
[13]
  residual activity: 90.6%
[14]
  residual activity: 115%
[15]
  residual activity: 78.7%
[16]
  residual activity: 73.9%
[17]
  residual activity: 91.1%
[18]
  residual activity: 101%
[20]
  residual activity: 88%
[21]
  residual activity: 88.5%
[22]
  residual activity: 25.2%
[23]
  residual activity: 95%
[24]
  residual activity: 88.3%
[25]
  residual activity: 76.6%
[26]
  residual activity: 118%
[28]
  residual activity: 93.2%
[29]
  residual activity: 97.5%
[30]
  residual activity: 96.2%
[31]
  residual activity: 102%
[32]
  residual activity: 134%
[33]
  residual activity: 100%
[34]
  residual activity: 80.2%
[35]
  residual activity: 85.5%
[36]
  residual activity: 92.7%
[37]
  residual activity: 90.1%
[38]
  residual activity: 107%
[39]
  residual activity: 91.3%
[40]
  residual activity: 93.1%
[41]
  residual activity: 101%
